Target: T1, NUDT5 (purified) (Homo sapiens, UniProt Q9UKK9)
T1 construct: homodimer
Assay: enzyme-coupled malachite green assay
Assay type: biochemical
Conditions: […] ADP-ribose, pH […] Mg acetate, […] °C

`COc1cc(-c2nnc(Cn3c(N4CCNCC4)nc4c3c(=O)n(C)c(=O)n4C)o2)ccc1C` [TH10184] was tested, and the IC50 was “TH10184 showed comparable biochemical inhibition and thermal shift to TH5427”.
